# From patent publication US20220202754A1, “USES OF PANTOTHENIC ACID IN PREPARATION OF A COMPOSITION FOR TREATING AND/OR PREVENTING TUMORS” (REVAISSANT (SHENZHEN) BIOSCIENCES CO., LTD., priority 2019, published 2022)
# How the values were obtained:
# [1] = test system: liver cancer cells (HEPA1-6) transplanted tumors; assay: Pantothenic acid for tumor prevention and treatment in mice: size of subcutaneously transplanted tumors; type: in vivo, C57BL/6 mice; settings: gavage 0.02 g/ml; HEPA1-6 subcutaneous tumor; p<0.01; FIG. 4 and FIG. 5
# Excerpt: FIG. 3 is a schematic diagram of the experimental procedure for detecting pantothenic acid, the metabolite of the intestinal bacteria to enhance an accumulation of CD8^+ cytotoxic T cells in the tumor microenvironment and to treat tumors in a mouse model of liver cancer. That is, an experimental procedure of administering pantothenic acid to mice subcutaneously transplanted with liver cancer cells (HEPA1-6). The time is expressed in days (Day, d) for administering pantothenic acid or for transplanting tumor cells.
# Experimental animals: Twenty-seven C57BL/6 mice aged 3 to 4 weeks old in good mental state were purchased from the Experimental Animal Center of Sun Yat-sen University. The mice were randomly divided into 3 groups, nine mice for each group, and the 3 groups were a control group (the first group), a pantothenic acid group (the second group) and a Vitamin E control group (the third group) respectively. […] After dissection, the sizes of the subcutaneously transplanted tumors were measured, and the tumor cells were collected in situ. A relative amount of the CD8^+ T lymphocytes in the tumor microenvironment was detected and analyzed by flow cytometry.
# [2] = test system: CD8+ T lymphocytes in the liver tumor microenvironment; assay: Relative amount of CD8+ T lymphocytes in the tumor microenvironment by flow cytometry; type: in vivo, C57BL/6 mice; settings: for increase of relative amount of CD8+ T lymphocytes in the liver tumor microenvironment: one typical mouse per group, FIG. 6
# Excerpt: Experimental animals: Twenty-seven C57BL/6 mice aged 3 to 4 weeks old in good mental state were purchased from the Experimental Animal Center of Sun Yat-sen University. The mice were randomly divided into 3 groups, nine mice for each group, and the 3 groups were a control group (the first group), a pantothenic acid group (the second group) and a Vitamin E control group (the third group) respectively. The 3 groups of mice were continually administered by gavage with pure water, pantothenic acid (at a concentration of 0.02 g/ml, purchased from the Sigma official website) and Vitamin E (at a concentration of 0.02 g/ml, purchased from the Sigma official website) for 3 to 4 weeks, respectively. After the mouse tumor (liver cancer) cells HEPA1-6 grew at logarithmic phase, they were digested with trypsin, and culture medium was neutralized. After centrifugation, the cells were collected, washed twice with DPBS to remove residual serum. Finally, the cells were redissolved with DPBS. After cell counting was completed, each mouse was subcutaneously inoculated with 10^6 cells into right axilla and continually treated by gavage, respectively, and the tumor-bearing mice were killed after 2 to 3 weeks. After dissection, the sizes of the subcutaneously transplanted tumors were measured, and the tumor cells were collected in situ. A relative amount of the CD8^+ T lymphocytes in the tumor microenvironment was detected and analyzed by flow cytometry.
smiles,measurement,setting,value
CC(C)(CO)[C@@H](O)C(=O)NCCC(=O)O [pantothenic acid],reduction of size of liver cancer cell transplanted tumors,[1],about 80%
same,relative amount of CD8+ T lymphocytes in the tumor microenvironment (percentage of total cells),"[2]; compared with pure water control group and Vitamin E control group, statistical analysis, p<0.05, FIG. 7",significantly increases
same,increase of relative amount of CD8+ T lymphocytes in the liver tumor microenvironment,[2]; compared with the Vitamin E control group,more than 3 times
same,increase of relative amount of CD8+ T lymphocytes in the liver tumor microenvironment,[2]; compared with the pure water control group,more than 7 times
